The values that follow come from article PMC3785365 (Clinical cancer research : an official journal of the …, 2011).

What is called pIC50 is −log10 of the IC50, conventionally taken in molar units.

SMILES strings stand for the structures. pIC50: −log10 of the molar value.

Data set [1] relates to phosphorylation of S6 and 4E-BP1. Kind of data set: Western blot of mTOR signaling. It is filed as cell-based, human. The settings on record: glioma cells.
Data set [2] deals with KDR (Homo sapiens, UniProt P35968). The data set is described as follows: Biochemical kinase assay, KDR.
Data set [3] has as its target T1, PDK1 (Homo sapiens, UniProt O15530).
T1 sequence (O15530 1-556): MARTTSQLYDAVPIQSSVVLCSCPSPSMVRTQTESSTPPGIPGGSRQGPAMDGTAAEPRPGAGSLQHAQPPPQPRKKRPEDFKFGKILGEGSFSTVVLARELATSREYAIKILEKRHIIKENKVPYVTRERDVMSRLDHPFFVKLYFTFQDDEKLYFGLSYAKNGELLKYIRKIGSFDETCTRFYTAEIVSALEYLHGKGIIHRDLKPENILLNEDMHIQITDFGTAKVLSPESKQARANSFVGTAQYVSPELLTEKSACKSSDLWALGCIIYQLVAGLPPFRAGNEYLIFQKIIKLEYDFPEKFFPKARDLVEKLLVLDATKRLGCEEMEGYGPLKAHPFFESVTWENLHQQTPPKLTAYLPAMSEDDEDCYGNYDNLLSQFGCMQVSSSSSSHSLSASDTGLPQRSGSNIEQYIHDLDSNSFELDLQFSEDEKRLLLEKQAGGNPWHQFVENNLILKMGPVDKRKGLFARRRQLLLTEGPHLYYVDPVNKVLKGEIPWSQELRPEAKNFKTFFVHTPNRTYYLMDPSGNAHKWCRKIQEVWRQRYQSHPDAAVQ
Kind of data set: Biochemical kinase assay, PDK1.

For data set [4], the target named is c-Met (Homo sapiens, UniProt P08581). Kind of data set: Biochemical kinase assay, c-Met.
Sequence of c-Met (P08581 25-1390): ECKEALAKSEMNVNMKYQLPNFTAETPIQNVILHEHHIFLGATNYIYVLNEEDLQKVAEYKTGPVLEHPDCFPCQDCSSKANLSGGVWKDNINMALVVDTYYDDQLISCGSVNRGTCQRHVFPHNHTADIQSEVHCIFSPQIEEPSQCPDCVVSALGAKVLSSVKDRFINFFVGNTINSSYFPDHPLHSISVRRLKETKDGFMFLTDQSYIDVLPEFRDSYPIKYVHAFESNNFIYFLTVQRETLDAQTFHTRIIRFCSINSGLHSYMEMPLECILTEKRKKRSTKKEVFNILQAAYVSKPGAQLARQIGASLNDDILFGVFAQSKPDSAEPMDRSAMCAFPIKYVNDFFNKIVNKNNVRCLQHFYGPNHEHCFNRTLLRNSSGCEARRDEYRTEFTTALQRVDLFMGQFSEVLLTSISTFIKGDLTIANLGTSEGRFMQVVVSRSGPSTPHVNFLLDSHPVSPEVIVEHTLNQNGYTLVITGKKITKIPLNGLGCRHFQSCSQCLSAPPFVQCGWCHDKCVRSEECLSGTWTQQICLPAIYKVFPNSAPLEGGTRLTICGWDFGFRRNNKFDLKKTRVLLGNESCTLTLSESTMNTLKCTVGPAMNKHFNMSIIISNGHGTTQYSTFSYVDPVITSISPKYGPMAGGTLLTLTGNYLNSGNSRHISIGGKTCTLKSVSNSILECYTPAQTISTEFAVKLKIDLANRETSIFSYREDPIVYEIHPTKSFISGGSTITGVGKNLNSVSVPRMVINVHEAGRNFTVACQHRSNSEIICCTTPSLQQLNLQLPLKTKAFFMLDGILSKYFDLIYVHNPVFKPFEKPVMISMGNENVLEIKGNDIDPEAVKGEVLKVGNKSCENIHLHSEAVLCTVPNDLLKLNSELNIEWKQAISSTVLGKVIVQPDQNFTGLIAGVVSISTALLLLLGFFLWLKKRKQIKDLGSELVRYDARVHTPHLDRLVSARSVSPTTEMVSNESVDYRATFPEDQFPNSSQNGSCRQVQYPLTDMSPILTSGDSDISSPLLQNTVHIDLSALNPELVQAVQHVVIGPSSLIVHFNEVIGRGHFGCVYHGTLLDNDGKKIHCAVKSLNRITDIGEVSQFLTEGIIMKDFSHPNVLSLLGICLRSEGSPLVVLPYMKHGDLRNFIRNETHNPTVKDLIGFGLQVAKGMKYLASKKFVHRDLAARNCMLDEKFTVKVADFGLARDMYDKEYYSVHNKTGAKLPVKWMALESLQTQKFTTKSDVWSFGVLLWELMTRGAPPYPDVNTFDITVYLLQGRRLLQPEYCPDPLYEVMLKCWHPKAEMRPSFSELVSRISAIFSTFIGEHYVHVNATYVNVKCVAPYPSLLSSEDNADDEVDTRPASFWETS
For data set [5], the target named is FGFR3 (Homo sapiens, UniProt P22607). The data set is described as follows: Biochemical kinase assay, FGFR3.
Sequence of FGFR3 (P22607 23-806, species assumed): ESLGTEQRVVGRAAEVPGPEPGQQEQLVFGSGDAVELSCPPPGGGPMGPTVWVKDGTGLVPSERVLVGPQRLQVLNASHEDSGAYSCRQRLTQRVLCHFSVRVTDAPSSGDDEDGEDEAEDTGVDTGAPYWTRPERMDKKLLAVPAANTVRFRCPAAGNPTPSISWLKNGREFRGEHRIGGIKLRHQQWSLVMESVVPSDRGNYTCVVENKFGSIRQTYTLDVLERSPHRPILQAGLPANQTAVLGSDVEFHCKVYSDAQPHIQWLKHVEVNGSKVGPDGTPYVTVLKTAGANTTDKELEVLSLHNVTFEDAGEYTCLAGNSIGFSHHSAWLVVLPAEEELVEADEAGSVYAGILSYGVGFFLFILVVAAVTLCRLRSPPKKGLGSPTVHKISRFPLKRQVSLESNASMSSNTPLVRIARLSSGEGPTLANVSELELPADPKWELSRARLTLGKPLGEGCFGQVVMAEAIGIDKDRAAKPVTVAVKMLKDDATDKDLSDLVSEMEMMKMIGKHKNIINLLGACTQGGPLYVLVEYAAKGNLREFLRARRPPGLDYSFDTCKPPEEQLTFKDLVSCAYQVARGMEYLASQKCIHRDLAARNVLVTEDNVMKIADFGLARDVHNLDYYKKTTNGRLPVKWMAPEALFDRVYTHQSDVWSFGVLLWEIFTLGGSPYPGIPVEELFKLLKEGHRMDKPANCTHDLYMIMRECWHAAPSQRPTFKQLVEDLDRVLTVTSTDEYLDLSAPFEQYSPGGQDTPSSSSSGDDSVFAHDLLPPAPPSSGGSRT
Data set [6] deals with Tek (Homo sapiens, UniProt Q02763). The data set is described as follows: Biochemical kinase assay, Tek.
Sequence of Tek (Q02763 23-1124, species assumed): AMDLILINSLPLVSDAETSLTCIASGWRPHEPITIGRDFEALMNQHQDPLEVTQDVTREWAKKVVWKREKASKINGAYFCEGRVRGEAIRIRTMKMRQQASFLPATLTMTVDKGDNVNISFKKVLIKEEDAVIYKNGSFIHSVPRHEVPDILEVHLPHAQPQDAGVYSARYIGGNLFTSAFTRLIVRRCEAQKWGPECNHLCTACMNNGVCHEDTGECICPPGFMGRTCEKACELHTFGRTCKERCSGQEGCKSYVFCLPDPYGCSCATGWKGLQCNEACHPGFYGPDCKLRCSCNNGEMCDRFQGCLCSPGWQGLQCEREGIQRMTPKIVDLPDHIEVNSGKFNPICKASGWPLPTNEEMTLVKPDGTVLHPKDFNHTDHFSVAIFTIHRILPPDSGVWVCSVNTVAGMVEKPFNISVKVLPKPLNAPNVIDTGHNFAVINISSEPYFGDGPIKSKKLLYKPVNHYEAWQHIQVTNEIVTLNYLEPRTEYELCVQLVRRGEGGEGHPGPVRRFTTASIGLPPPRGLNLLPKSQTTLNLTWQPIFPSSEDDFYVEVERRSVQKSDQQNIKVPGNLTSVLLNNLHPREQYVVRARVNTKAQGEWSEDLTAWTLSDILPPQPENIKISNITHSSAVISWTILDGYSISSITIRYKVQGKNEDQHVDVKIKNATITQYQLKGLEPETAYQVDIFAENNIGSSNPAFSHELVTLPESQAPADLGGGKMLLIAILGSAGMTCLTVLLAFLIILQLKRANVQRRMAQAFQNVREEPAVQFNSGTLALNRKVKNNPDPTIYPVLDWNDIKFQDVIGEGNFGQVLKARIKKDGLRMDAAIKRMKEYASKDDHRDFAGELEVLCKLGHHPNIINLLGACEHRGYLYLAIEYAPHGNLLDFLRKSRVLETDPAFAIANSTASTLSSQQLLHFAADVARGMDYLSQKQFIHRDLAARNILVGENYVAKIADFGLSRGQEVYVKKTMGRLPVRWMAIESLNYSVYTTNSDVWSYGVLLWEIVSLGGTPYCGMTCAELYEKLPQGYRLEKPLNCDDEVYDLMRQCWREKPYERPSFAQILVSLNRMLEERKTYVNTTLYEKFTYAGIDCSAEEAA
The subject of data set [7] is U87 cells. The data set is described as follows: Mitotic index. The class given is cell-based, human. The settings on record: U87 (p53-wt); 2 μm, 72 hours; control cells 1% to 3%.
The test system of data set [8] is D54 cells. Kind of data set: Mitotic index. The class given is cell-based, human. The following applies: D54 (p53-wt); 2 μm, 72 hours; control cells 1% to 3%.
Data set [9] deals with U343 cells. The data set is described as follows: Mitotic index. The settings on record: U343 (p53-wt); 2 μm, 72 hours; control cells 1% to 3%. The class given is cell-based, human.
The test system of data set [10] is U251 cells. Kind of data set: Mitotic index. It is filed as cell-based, human. The settings on record: U251 (p53-mutant/deleted); 2 μm, 72 hours; control cells 1% to 3%.
The test system of data set [11] is LN18 cells. The data set is described as follows: Mitotic index. The class given is cell-based, human. The following applies: LN18 (p53-mutant/deleted); 2 μm, 72 hours; control cells 1% to 3%.
In data set [12] the test system is LN229 cells. The data set is described as follows: Mitotic index. The following applies: LN229 (p53-mutant/deleted); 2 μm, 72 hours; control cells 1% to 3%. It is filed as cell-based, human.
Data set [13] relates to U87 intracranial xenografts. Kind of data set: Intracranial U87 glioma xenograft survival model. The class given is in vivo. The settings on record: nude mice, control 26 days.
The nature of data set [14]: Tolerability in treated tumor-bearing mice. The class given is in vivo. The following applies: 20 or 40 mg/kg oral.
Data set [15] deals with glioma cell lines. The data set is described as follows: Annexin V apoptosis assay by flow cytometry. The following applies: 72 hours.
Data set [16] relates to phosphorylation of Akt. The data set is described as follows: Inhibition of Akt phosphorylation by immunoblot in U87MG and LN18 cells. The settings on record: Homo sapiens, read-out: IC50 for inhibiting phosphorylation of Akt.
In data set [17] the target is P110α (Homo sapiens, UniProt P42336). The settings on record: cited from earlier work.
Sequence of P110α (P42336 whole entry): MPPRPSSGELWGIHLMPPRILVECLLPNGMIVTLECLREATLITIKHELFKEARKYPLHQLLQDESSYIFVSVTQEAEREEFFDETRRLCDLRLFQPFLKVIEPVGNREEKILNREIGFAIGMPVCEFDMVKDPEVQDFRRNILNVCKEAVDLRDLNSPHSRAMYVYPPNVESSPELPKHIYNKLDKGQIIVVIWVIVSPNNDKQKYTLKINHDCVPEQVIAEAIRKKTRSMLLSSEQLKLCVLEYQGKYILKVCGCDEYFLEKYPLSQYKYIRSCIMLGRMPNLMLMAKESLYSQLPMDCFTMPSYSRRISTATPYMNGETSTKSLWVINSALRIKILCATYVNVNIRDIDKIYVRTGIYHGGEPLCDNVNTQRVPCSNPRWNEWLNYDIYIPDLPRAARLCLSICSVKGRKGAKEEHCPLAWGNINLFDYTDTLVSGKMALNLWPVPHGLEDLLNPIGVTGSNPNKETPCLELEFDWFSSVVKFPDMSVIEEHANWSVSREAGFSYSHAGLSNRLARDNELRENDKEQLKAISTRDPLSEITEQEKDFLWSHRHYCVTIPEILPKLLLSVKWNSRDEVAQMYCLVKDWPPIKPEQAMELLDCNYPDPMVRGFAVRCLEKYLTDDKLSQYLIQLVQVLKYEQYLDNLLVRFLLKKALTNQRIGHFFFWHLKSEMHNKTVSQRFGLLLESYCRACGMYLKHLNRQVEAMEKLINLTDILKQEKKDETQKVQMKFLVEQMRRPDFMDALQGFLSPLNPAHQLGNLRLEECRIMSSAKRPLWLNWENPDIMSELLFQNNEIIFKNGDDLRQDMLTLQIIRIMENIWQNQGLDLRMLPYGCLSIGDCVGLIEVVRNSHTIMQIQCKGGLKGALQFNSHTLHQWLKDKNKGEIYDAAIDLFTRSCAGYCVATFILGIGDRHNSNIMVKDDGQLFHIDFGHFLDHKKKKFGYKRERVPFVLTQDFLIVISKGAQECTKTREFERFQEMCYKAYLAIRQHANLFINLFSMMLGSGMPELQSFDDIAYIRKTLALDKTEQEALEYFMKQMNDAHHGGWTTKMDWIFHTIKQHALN
Sequence of P110α (P27986 whole entry partner): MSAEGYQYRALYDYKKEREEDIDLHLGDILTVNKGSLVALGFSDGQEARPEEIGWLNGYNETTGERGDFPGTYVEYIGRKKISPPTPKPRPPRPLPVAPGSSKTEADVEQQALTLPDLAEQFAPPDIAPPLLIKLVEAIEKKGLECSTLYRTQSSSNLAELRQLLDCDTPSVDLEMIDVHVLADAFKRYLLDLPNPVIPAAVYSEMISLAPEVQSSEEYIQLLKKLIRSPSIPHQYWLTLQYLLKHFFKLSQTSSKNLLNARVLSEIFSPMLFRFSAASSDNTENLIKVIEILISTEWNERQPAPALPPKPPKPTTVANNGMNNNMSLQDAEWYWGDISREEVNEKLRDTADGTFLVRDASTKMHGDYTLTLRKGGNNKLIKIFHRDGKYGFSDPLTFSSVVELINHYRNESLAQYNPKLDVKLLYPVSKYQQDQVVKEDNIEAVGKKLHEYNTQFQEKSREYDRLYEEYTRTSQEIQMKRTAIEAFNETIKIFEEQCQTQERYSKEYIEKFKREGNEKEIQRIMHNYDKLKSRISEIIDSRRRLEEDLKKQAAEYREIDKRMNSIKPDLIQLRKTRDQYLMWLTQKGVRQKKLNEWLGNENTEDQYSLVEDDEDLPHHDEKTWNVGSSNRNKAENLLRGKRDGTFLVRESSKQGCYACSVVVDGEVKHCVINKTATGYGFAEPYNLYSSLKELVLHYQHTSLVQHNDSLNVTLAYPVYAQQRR
Data set [18] relates to p110γ. The following applies: cited from earlier work.
In data set [19] the test system is p110δ. The settings on record: cited from earlier work.

For `Cn1c(=O)n(-c2ccc(C(C)(C)C#N)cc2)c2c3cc(-c4cnc5ccccc5c4)ccc3ncc21` [NVP-BEZ235, reference compound], the “effect on phosphorylation of S6 and 4E-BP1” value in data set [1] is “nearly complete dephosphorylation of both S6 and 4E-BP1”.

`Nc1cc(C(F)(F)F)c(-c2cc(N3CCOCC3)nc(N3CCOCC3)n2)cn1` [NVP-BKM120]: the negative logarithm of the IC50 (pIC50) in data set [2] is below 5.00; in data set [3], below 5.00; in [4], below 5.00; in data set [5], below 5.00; in data set [6], below 5.00; in data set [16], 6.00 to 6.30. Besides, the “cells in mitosis (phospho-H3 positive) after treatment” value in data set [7] stood at 2.6%; in [8] it was 2.8%; in data set [9] it was 3%; in [10], 12.4%; in [11] it was 7.3%; in [12], 7.9%. Further, the figures for the median survival time in [13] (20 mg/kg oral) and in [13] (40 mg/kg oral) were 38 days and 48 days, respectively. Also, the “adverse effects with respect to body weight, water intake, and general activity” value in data set [14] is listed as “no obvious signs of adverse effects”. Further, the “effect on phosphorylation of S6 and 4E-BP1” value in [1] is “minor dephosphorylation only of the S6 protein”. In addition, the “change of the percentage of apoptosis (Annexin V)” value in [15] (p53-mutant/deleted cell lines) came to 3.98%; in data set [15] (p53-wt cell lines) it was 14.52%.

As for `C=CCN(/C=C1/C(=O)O[C@H](COC)[C@@]2(C)C1=C(O)C(=O)C1=C2[C@H](OC(C)=O)C[C@]2(C)C(=O)CC[C@@H]12)CC=C` [PX-866], the IC50 result in [17], in data set [18] and in data set [19] was “low nanomolar range” throughout.
